The source of these data is PubChem BioAssay (NCI).

Experiment in all cases: NCI-60 cell line screen, 48 h
In experiment [1] the test system is BT-549 breast.
Experiment [2] relates to CAKI-1 renal.
The subject of experiment [3] is EKVX NSCLC.
In experiment [4] the test system is HL-60(TB) leukemia.
For experiment [5], the system named is K-562 leukemia.
The test system of experiment [6] is MALME-3M melanoma.
For experiment [7], the system named is MDA-MB-435.
Experiment [8] has as its system NCI-H23 lung.
In experiment [9] the test system is OVCAR-4 ovarian.
Experiment [10] deals with SF-268 CNS.

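Cells were grown in 96-well plates and exposed to each compound for 48 hours at five concentrations; endpoints were interpolated linearly between bracketing concentrations, or set to the highest concentration if not reached. TGI denotes the concentration required for complete inhibition of growth.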

Turning to `NC(=O)NN=C1Cc2ccccc2C1`, the TGI in experiment [1], in experiment [2], in [3], in experiment [4], in experiment [5] and in experiment [6] was more than 100 µM in each case. Moreover, the TGI in experiment [7], in experiment [8], in experiment [9] and in experiment [10] was more than 100 µM in each case.

Take `COc1ccc(-c2cc3cc(Cl)cc(Cl)c3oc2=O)cc1OC`: the TGI in experiment [1], in [2], in [3], in experiment [4], in experiment [5] and in experiment [6] was more than 100 µM throughout. The TGI in experiment [7], in experiment [8], in experiment [9] and in experiment [10] was more than 100 µM throughout.

With `Cc1cc(-c2cc(C(C)(C)C)c(O)c(C(C)(C)C)c2)c(C)cc1-c1cc(C(C)(C)C)c(O)c(C(C)(C)C)c1`, the TGI in experiment [1], in experiment [2], in experiment [3], in [4], in experiment [5] and in experiment [6] was more than 100 µM in each case. Besides, the TGI in experiment [7] is 32.7 µM; in experiment [8], more than 100 µM; in experiment [9], more than 100 µM; in [10], more than 100 µM.

In the case of `CO[P@@]1(=O)O[C@@H](c2ccccc2)[C@H](O)[C@]1(O)c1ccccc1`, the TGI was more than 100 µM in experiment [1]; more than 100 µM in experiment [2]; 60.4 µM in experiment [3]; more than 100 µM in experiment [4]; more than 100 µM in [5]; more than 100 µM in experiment [6]. Further, the TGI in experiment [7], in experiment [8], in experiment [9] and in experiment [10] was more than 100 µM each time.

Consider `CC(C)=CCc1c(O)cc2oc(-c3ccc(O)cc3O)cc(=O)c2c1O`, for which the TGI in experiment [1] is more than 76.2 µM; in experiment [2], more than 81.4 µM; in [3], more than 100 µM; in experiment [4], 51 µM; in [5] it was more than 59.2 µM; in experiment [6], 53.7 µM. In addition, the TGI in [7] was more than 75.5 µM; in experiment [8], 58.2 µM; in experiment [9], 50.8 µM; in [10], more than 100 µM.

For `CC/C=N\N1C(N)=C(C#N)C(C#N)(C#N)C1CC` (stereo not given), the TGI in [1] is more than 100 µM; in experiment [2], more than 100 µM; in experiment [3], more than 100 µM; in experiment [4] it was 85.6 µM; in experiment [5], more than 100 µM; in experiment [6], more than 100 µM. Besides, the TGI in experiment [7], in experiment [8], in experiment [9] and in experiment [10] was more than 100 µM throughout.

As for `CCC1(CC)C(=O)N(C(=O)c2cc(OC)c(OC)c(OC)c2)N(C(=O)c2cc(OC)c(OC)c(OC)c2)C1=O`, the TGI in experiment [1], in experiment [2], in experiment [3], in experiment [4], in experiment [5] and in experiment [6] was more than 50 µM throughout. The TGI in experiment [7], in experiment [8], in experiment [9] and in [10] was more than 50 µM throughout.

With `CC1=C(C(=O)OCCO[N+](=O)[O-])C(c2ccccc2[N+](=O)[O-])C(C(=O)OC(C)C)=C(C)N1` (stereo not given), the TGI in experiment [1] is 30.4 µM; in experiment [2] it was 59.7 µM; in [3], 53 µM; in experiment [4] it was more than 100 µM; in experiment [5] it was more than 100 µM; in experiment [6], 35.9 µM. Also, the TGI was 28.5 µM in [7], 48.5 µM in [8], 52.3 µM in experiment [9] and 47.1 µM in experiment [10].

`COC1(CC[C@H](C)COC2OC(CO)C(O)C(O)C2O)O[C@H]2C[C@H]3[C@@H]4CC=C5C[C@@H](OC6OC(CO)C(OC7OC(C)C(O)C(O)C7O)C(O)C6OC6OC(C)C(O)C(O)C6O)CC[C@]5(C)[C@H]4CC[C@]3(C)[C@H]2[C@@H]1C` (stereo not given in full): the TGI is 13.1 µM in [1]; 3.26 µM in experiment [2]; 98.8 µM in experiment [3]; 46.6 µM in experiment [4]; more than 100 µM in experiment [5]; 9.15 µM in experiment [6]. In addition, the TGI was 5.3 µM in experiment [7], 19.2 µM in experiment [8], 18 µM in experiment [9] and 10.3 µM in experiment [10].

As for `CCOC(=O)[C@@H](Cc1ccc(CCl)cc1)NC(C)=O`, the TGI is more than 100 µM in [1]; 68.6 µM in experiment [2]; 54.9 µM in experiment [3]; 70.7 µM in [4]; more than 100 µM in experiment [5]; 37.7 µM in [6]. In addition, the TGI is 48.7 µM in [7], 68.3 µM in experiment [8], 41.1 µM in [9] and 67 µM in [10].

On to `O=c1c2c3c(sc2nc2n1N=C(c1ccc(Br)cc1)CS2)CCCC3`, for which the TGI in experiment [1], in experiment [2], in [3], in experiment [4], in experiment [5] and in experiment [6] was more than 100 µM throughout. Moreover, the TGI in [7], in [8], in [9] and in experiment [10] was more than 100 µM each time.

Consider `CCOC(=O)c1c(-c2ccccc2)c(OC)cn1C`, for which the TGI in experiment [1], in [2], in [3], in experiment [4], in experiment [5] and in experiment [6] was more than 10 µM in each case. Besides, the TGI in [7], in experiment [8], in experiment [9] and in experiment [10] was more than 10 µM throughout.
